Test system: not listed separately
Test: Stability and crystallization of the topical composition
Type: physicochemical
Conditions: not given
Description: Through experimentation it was discovered that a combination of sugars (e.g. mannitol with dextrose) with or without the addition of corn syrup (also known as glucose-fructose) would impede or completely eliminate the crystallization process, allowing for a higher concentration of these ingredients in solution.
With OCC(O)CO [Glycerin] the “stability in solution / of the formula, shelf-life” value was “highly effective stabilizing measure”.

Same assay, conditions: winter temperatures or refrigerator; combination of sugars
With OC[C@@H](O)[C@@H](O)[C@H](O)[C@H](O)CO [Mannitol, reference compound] the “crystallization of Mannitol in cold environments” value was “significantly mitigated or eliminated”.

Test system: rabbit ear
Test: not given
Conditions: rating out of 5 (x/5); cited from earlier work
In the case of O=C1CC[C@@H](C(=O)[O-])N1.[Na+] [Sodium PCA, sodium L-pyroglutamate], the comedogenicity is given as 0/5.
In the case of CC12CCC(CC1=O)C2(C)C (centres unmarked) [camphor, reference compound], the comedogenicity is listed as 2/5.
For CCCCCCCCCCCCCCCCCCO [cetearyl alcohol], the comedogenicity is listed as 4/5.
In the case of CCCCCCCCCCCCCCCCCC(=O)OCC(O)CO (centres unmarked) [glyceryl stearate], the comedogenicity is listed as 3/5.
In the case of CCCCCCCCCCCCCC(=O)OC(C)C [isopropyl myristate], the comedogenicity is listed as 5/5.
In the case of CCCCCCCCCCCCCCCC(=O)OCCCCCCCC [octyl palmitate], the comedogenicity is listed as 4/5.
For CC(C)=CCC/C(C)=C/CC/C(C)=C/CC/C=C(\C)CC/C=C(\C)CCC=C(C)C [squalene], the comedogenicity is listed as 1/5.
In the case of caprylic/capric triglyceride, the comedogenicity is given as 0/5.
For cyclomethicone, the comedogenicity is given as 0/5.
